Reference: patent publication US12404295B2, “(Hetero)aryl-methyl-thio-beta-D-galactopyranoside derivatives” (Idorsia Pharmaceuticals Ltd, priority 2019, dated 2025)
pIC50: −log10 of the molar value. Like-named read-outs stand apart in the source and are kept apart here.

Tests used:
human Gal-3 (hGal-3) = human Gal-3 (hGal-3) (Homo sapiens (Human), UniProt P17931); assay: competitive binding assay: biotinylated hGal-3 binding to microplate-adsorbed asialofetuin (ASF)
How it was run: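 Peroxidase activity developed with ABTS measures the biotinylated hGal-3 remaining on the asialofetuin-coated surface after competition with test compounds. Incubation ran 3 h at 4 °C, followed by 1 h with streptavidin-peroxidase at 80 ng/mL.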

human Gal-1 (hGal-1) = human Gal-1 (hGal-1) (Homo sapiens (Human), UniProt P09382); assay: competitive binding assay: biotinylated hGal-1 binding to microplate-adsorbed asialofetuin (ASF); details: Table 15; read-out: IC50 (Galectin-1 inhibition)
How it was run: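 Biotinylated human Gal-1 (300-1000 ng/mL) competes with serially diluted compound for binding to ASF-coated plates, 3 h at 4° C. Bound protein detected with streptavidin-peroxidase and ABTS substrate (spectrophotometric). IC50 given as mean of several measurements.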

[1] = Table 10, 2-OMe-Gal inhibitors, read-out: IC50 (Gal-3 inhibition)
[2] = Table 5, read-out: IC50 (Gal-3 inhibition)
[3] = Table 11, read-out: IC50 (Gal-3 inhibition)
[4] = Gal-3 inhibition, binding of biotinylated hGal-3 to ASF, mean values, read-out: IC50

human Gal-3 (hGal-3), sequence (P17931 whole entry): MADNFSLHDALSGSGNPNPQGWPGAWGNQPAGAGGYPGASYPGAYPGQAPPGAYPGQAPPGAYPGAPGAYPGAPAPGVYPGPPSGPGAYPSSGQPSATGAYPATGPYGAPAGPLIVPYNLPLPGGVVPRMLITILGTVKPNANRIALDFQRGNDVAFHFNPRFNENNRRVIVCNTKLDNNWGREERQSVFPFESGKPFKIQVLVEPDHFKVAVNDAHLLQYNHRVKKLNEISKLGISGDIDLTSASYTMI
human Gal-1 (hGal-1), sequence (P09382 whole entry): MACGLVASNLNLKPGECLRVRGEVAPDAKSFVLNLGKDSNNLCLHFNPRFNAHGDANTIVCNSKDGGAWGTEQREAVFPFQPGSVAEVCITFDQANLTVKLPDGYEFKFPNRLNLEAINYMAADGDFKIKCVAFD

SMILES	pIC50 (human Gal-1 (hGal-1))	pIC50 (human Gal-3 (hGal-3); [2])	also measured
CO[C@@H]1[C@@H](n2cc(-c3cc(F)c(F)c(F)c3)nn2)[C@@H](O)[C@@H](CO)O[C@H]1S[C@H](c1ccccc1C1CC1)C1(O)CCC(F)(F)CC1 [Example 2.44.106R.I., (2R,3R,4S,5R,6S)-6-(((R)-(2-Cyclopropylphenyl)(4,4-difluoro-1-hydroxycyclohexyl)methyl)thio)-2-(hydroxymethyl)-5-methoxy-4-(4-(3,4,5-trifluorophenyl)-1H-1,2,3-triazol-1-yl)tetrahydro-2H-pyran-3-ol]	6.68		pIC50 (human Gal-3 (hGal-3); [1]): 6.74
OC[C@H]1O[C@@H](SC(c2ccccc2C(F)(F)F)C2(O)CCC(F)(F)CC2)[C@H](O)[C@@H](n2cc(-c3cc(F)c(F)c(F)c3)nn2)[C@H]1O (stereo partly drawn) [Example 2.44.112., (2S,3R,4S,5R,6R)-2-(((4,4-Difluoro-1-hydroxycyclohexyl)(2-(trifluoromethyl)phenyl)methyl)thio)-6-(hydroxymethyl)-4-(4-(3,4,5-trifluorophenyl)-1H-1,2,3-triazol-1-yl)tetrahydro-2H-pyran-3,5-diol]	6.02	6.52	
OC[C@H]1O[C@@H](S[C@H](c2ccccc2C(F)(F)F)C2(O)CCC(F)(F)CC2)[C@H](O)[C@@H](n2cc(-c3cc(F)c(F)c(F)c3)nn2)[C@H]1O [Example 2.44.112R., (2S,3R,4S,5R,6R)-2-(((R)-(4,4-Difluoro-1-hydroxycyclohexyl)(2-(trifluoromethyl)phenyl)methyl)thio)-6-(hydroxymethyl)-4-(4-(3,4,5-trifluorophenyl)-1H-1,2,3-triazol-1-yl)tetrahydro-2H-pyran-3,5-diol]	6.11	7.10	
CO[C@@H]1[C@@H](n2cc(-c3cc(F)c(F)c(F)c3)nn2)[C@@H](O)[C@@H](CO)O[C@H]1SC(c1nc(C)c(C)nc1C)C1(O)CCC(F)(F)CC1 (stereo partly drawn) [Example 2.44.119.I., (2R,3R,4S,5R,6S)-6-(((4,4-Difluoro-1-hydroxycyclohexyl)(3,5,6-trimethylpyrazin-2-yl)methyl)thio)-2-(hydroxymethyl)-5-methoxy-4-(4-(3,4,5-trifluorophenyl)-1H-1,2,3-triazol-1-yl)tetrahydro-2H-pyran-3-ol]	5.89		pIC50 (human Gal-3 (hGal-3); [3]): 6.59
Cc1nc(C)c([C@@H](S[C@@H]2O[C@H](CO)[C@H](O)[C@H](n3cc(-c4cc(F)c(F)c(F)c4)nn3)[C@H]2O)C2(O)CCC(F)(F)CC2)nc1C [Example 2.44.119R., (2S,3R,4S,5R,6R)-2-(((R)-(4,4-Difluoro-1-hydroxycyclohexyl)(3,5,6-trimethylpyrazin-2-yl)methyl)thio)-6-(hydroxymethyl)-4-(4-(3,4,5-trifluorophenyl)-1H-1,2,3-triazol-1-yl)tetrahydro-2H-pyran-3,5-diol]	6.64	7.52	
CO[C@@H]1[C@@H](n2cc(-c3cc(F)c(F)c(F)c3)nn2)[C@@H](O)[C@@H](CO)O[C@H]1S[C@H](c1nc(C)c(C)nc1C)C1(O)CCC(F)(F)CC1 [Example 2.44.119R.I., (2R,3R,4S,5R,6S)-6-(((R)-(4,4-Difluoro-1-hydroxycyclohexyl)(3,5,6-trimethylpyrazin-2-yl)methyl)thio)-2-(hydroxymethyl)-5-methoxy-4-(4-(3,4,5-trifluorophenyl)-1H-1,2,3-triazol-1-yl)tetrahydro-2H-pyran-3-ol]	6.35		pIC50 (human Gal-3 (hGal-3); [3]): 7.05
Cc1nc(C)c([C@H](S[C@@H]2O[C@H](CO)[C@H](O)[C@H](n3cc(-c4cc(F)c(F)c(F)c4)nn3)[C@H]2O)C2(O)CCC(F)(F)CC2)nc1C [Example 2.44.119S., (2S,3R,4S,5R,6R)-2-(((S)-(4,4-Difluoro-1-hydroxycyclohexyl)(3,5,6-trimethylpyrazin-2-yl)methyl)thio)-6-(hydroxymethyl)-4-(4-(3,4,5-trifluorophenyl)-1H-1,2,3-triazol-1-yl)tetrahydro-2H-pyran-3,5-diol]	5.14	6.15	
CO[C@@H]1[C@@H](n2cc(-c3cc(F)c(F)c(F)c3)nn2)[C@@H](O)[C@@H](CO)O[C@H]1S[C@@H](c1nc(C)c(C)nc1C)C1(O)CCC(F)(F)CC1 [Example 2.44.119S.I., (2R,3R,4S,5R,6S)-6-(((S)-(4,4-Difluoro-1-hydroxycyclohexyl)(3,5,6-trimethylpyrazin-2-yl)methyl)thio)-2-(hydroxymethyl)-5-methoxy-4-(4-(3,4,5-trifluorophenyl)-1H-1,2,3-triazol-1-yl)tetrahydro-2H-pyran-3-ol]	4.54		pIC50 (human Gal-3 (hGal-3); [3]): 5.29
Cc1conc1[C@@H](S[C@@H]1O[C@H](CO)[C@H](O)[C@H](n2cc(-c3cc(F)c(F)c(F)c3)nn2)[C@H]1O)C1(O)CCC(F)(F)CC1 [Example 2.44.120R., (2S,3R,4S,5R,6R)-2-(((R)-(4,4-Difluoro-1-hydroxycyclohexyl)(4-methylisoxazol-3-yl)methyl)thio)-6-(hydroxymethyl)-4-(4-(3,4,5-trifluorophenyl)-1H-1,2,3-triazol-1-yl)tetrahydro-2H-pyran-3,5-diol]	6.42	6.96	
CO[C@@H]1[C@@H](n2cc(-c3cc(F)c(F)c(F)c3)nn2)[C@@H](O)[C@@H](CO)O[C@H]1S[C@H](c1nocc1C)C1(O)CCC(F)(F)CC1 [Example 2.44.120R.I., (2R,3R,4S,5R,6S)-6-(((R)-(4,4-Difluoro-1-hydroxycyclohexyl)(4-methylisoxazol-3-yl)methyl)thio)-2-(hydroxymethyl)-5-methoxy-4-(4-(3,4,5-trifluorophenyl)-1H-1,2,3-triazol-1-yl)tetrahydro-2H-pyran-3-ol]	6.21		pIC50 (human Gal-3 (hGal-3); [1]): 6.68

Now from value to compound, other results behind:

pIC50 (human Gal-1 (hGal-1))	pIC50 (human Gal-3 (hGal-3); [2])	SMILES	also measured
4.65	5.08	Cc1conc1[C@H](S[C@@H]1O[C@H](CO)[C@H](O)[C@H](n2cc(-c3cc(F)c(F)c(F)c3)nn2)[C@H]1O)C1(O)CCC(F)(F)CC1 [Example 2.44.120S., (2S,3R,4S,5R,6R)-2-(((S)-(4,4-Difluoro-1-hydroxycyclohexyl)(4-methylisoxazol-3-yl)methyl)thio)-6-(hydroxymethyl)-4-(4-(3,4,5-trifluorophenyl)-1H-1,2,3-triazol-1-yl)tetrahydro-2H-pyran-3,5-diol]	
6.70	7.30	OC[C@H]1O[C@@H](S[C@H](c2ncccc2C(F)(F)F)C2(O)CCC(F)(F)CC2)[C@H](O)[C@@H](n2cc(-c3cc(F)c(F)c(F)c3)nn2)[C@H]1O [Example 2.44.125R., (2S,3R,4S,5R,6R)-2-(((R)-(4,4-Difluoro-1-hydroxycyclohexyl)(3-(trifluoromethyl)pyridin-2-yl)methyl)thio)-6-(hydroxymethyl)-4-(4-(3,4,5-trifluorophenyl)-1H-1,2,3-triazol-1-yl)tetrahydro-2H-pyran-3,5-diol]	
6.59		CO[C@@H]1[C@@H](n2cc(-c3cc(F)c(F)c(F)c3)nn2)[C@@H](O)[C@@H](CO)O[C@H]1S[C@H](c1ncccc1C(F)(F)F)C1(O)CCC(F)(F)CC1 [Example 2.44.125R.I., (2R,3R,4S,5R,6S)-6-(((R)-(4,4-Difluoro-1-hydroxycyclohexyl)(3-(trifluoromethyl)pyridin-2-yl)methyl)thio)-2-(hydroxymethyl)-5-methoxy-4-(4-(3,4,5-trifluorophenyl)-1H-1,2,3-triazol-1-yl)tetrahydro-2H-pyran-3-ol]	pIC50 (human Gal-3 (hGal-3); Table 9, 2-OMe-Gal inhibitors, read-out: IC50 (Gal-3 inhibition)): 7.22
5.47	6.09	OC[C@H]1O[C@@H](S[C@@H](c2ncccc2C(F)(F)F)C2(O)CCC(F)(F)CC2)[C@H](O)[C@@H](n2cc(-c3cc(F)c(F)c(F)c3)nn2)[C@H]1O [Example 2.44.125S., (2S,3R,4S,5R,6R)-2-(((S)-(4,4-Difluoro-1-hydroxycyclohexyl)(3-(trifluoromethyl)pyridin-2-yl)methyl)thio)-6-(hydroxymethyl)-4-(4-(3,4,5-trifluorophenyl)-1H-1,2,3-triazol-1-yl)tetrahydro-2H-pyran-3,5-diol]	
7.22		Cc1cccnc1C(S[C@@H]1O[C@H](CO)[C@H](O)[C@H](n2cc(-c3cc(F)c(F)c(F)c3)nn2)[C@H]1O)C1(O)CCC(F)(F)CC1 (stereo partly drawn) [Example 2.44.126., (2S,3R,4S,5R,6R)-2-(((4,4-Difluoro-1-hydroxycyclohexyl)(3-methylpyridin-2-yl)methyl)thio)-6-(hydroxymethyl)-4-(4-(3,4,5-trifluorophenyl)-1H-1,2,3-triazol-1-yl)tetrahydro-2H-pyran-3,5-diol]	pIC50 (human Gal-3 (hGal-3); [4]): 7.22
5.88		CCO[C@@H]1[C@@H](n2cc(-c3cc(F)c(F)c(F)c3)nn2)[C@@H](O)[C@@H](CO)O[C@H]1SC(c1ncccc1C)C1(O)CCC(F)(F)CC1 (stereo partly drawn) [Example 2.44.126.II., (2R,3R,4S,5R,6S)-6-(((4,4-Difluoro-1-hydroxycyclohexyl)(3-methylpyridin-2-yl)methyl)thio)-5-ethoxy-2-(hydroxymethyl)-4-(4-(3,4,5-trifluorophenyl)-1H-1,2,3-triazol-1-yl)tetrahydro-2H-pyran-3-ol]	pIC50 (human Gal-3 (hGal-3); [4]): 6.80
6.52		Cc1cccnc1[C@@H](S[C@@H]1O[C@H](CO)[C@H](O)[C@H](n2cc(-c3cc(F)c(F)c(F)c3)nn2)[C@H]1O)C1(O)CCC(F)(F)CC1 [Example 2.44.126R., (2S,3R,4S,5R,6R)-2-(((R)-(4,4-Difluoro-1-hydroxycyclohexyl)(3-methylpyridin-2-yl)methyl)thio)-6-(hydroxymethyl)-4-(4-(3,4,5-trifluorophenyl)-1H-1,2,3-triazol-1-yl)tetrahydro-2H-pyran-3,5-diol]	pIC50 (human Gal-3 (hGal-3); [4]): 7.40
